Data taken from patent US7879846B2, “Serine hydrolase inhibitors” (Kyorin Pharmaceutical Co.., Ltd., priority 2006, dated 2011).
“And” between values parts separate entries of the source, which are not always exact repeats. Equal entries are not always repeated. Structures can show the parent of a compound that is named as a salt.

What was measured:
[1] = tested on: LPS-induced increase of lung permeability (Evan's blue dye leakage); experiment: Acute lung injury model (lung permeability assay); type: in vivo; conditions: male Wistar rats, intratracheal LPS, intravenous infusion 10 mg/kg/hr over 6 hours, Evan's blue dye content of lung
Experimental: Acute Lung Injury Model (Lung Permeability Assay)
Adult male Wistar rats (200-250 g) were anesthetized with an intraperitoneal of pentobarbital (30 mg/kg). Under the anesthesia, lipopolysaccharide (LPS) ([…]) or physiological saline (100 μL/animal) was intratracheally injected. Increase of lung permeability after LPS instillation was measured by Evan's blue dye (EBD) leakage from blood. EBD (40 mg/5 mL/kg) was administered via tail vein 5 hours after the LPS challenge. At 6 hours, animals were exsanguinated by cardiac puncture under deep anesthesia and the pulmonary vessels were perfused with 20 mL saline to ensure the removal of EBD from the vascular spaces. Lungs were removed and EBD was extracted in 6 mL formamide at 65° C. overnight. EBD content was determined by measuring absorbance at 620 nm using a spectrophotometer. The test compound was dissolved in saline with a small amount of 1 N HCl and continuously infused intravenously at a rate of 10 mg/kg/hr over 6 hours starting just after LPS challenge.

[2] = target: T1, Human sputum neutrophil elastase (Homo sapiens, UniProt P08246); experiment: Inhibitor IC50 against human neutrophil elastase (fluorogenic MeOSuc-AAPV-AMC substrate); type: biochemical; conditions: 20 min preincubation, read-out: HNE IC50
T1 construct: purchased Elastin Products Co; host or cells: human sputum (natural source)
T1 sequence (P08246 30-247 limits assumed): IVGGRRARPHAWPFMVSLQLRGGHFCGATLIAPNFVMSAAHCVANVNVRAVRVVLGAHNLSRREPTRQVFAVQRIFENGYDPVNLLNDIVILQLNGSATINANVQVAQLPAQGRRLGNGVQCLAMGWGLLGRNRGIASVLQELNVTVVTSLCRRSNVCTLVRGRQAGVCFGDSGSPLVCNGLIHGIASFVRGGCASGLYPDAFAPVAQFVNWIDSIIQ
How it was run: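 Enzyme from human sputum in 200 mM Tris pH 7.4 with 1 mg/ml BSA; MeOSuc-AAPV-AMC at 1×10^−4 M final. Reaction ran 20 min at room temperature, then quenched with 3% (v/v) acetic acid. IC50 from Hill fit of fluorescence versus inhibitor concentration.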

[3] = tested on: HNE-induced hemorrhage in the lung; experiment: Neutrophil elastase-induced lung hemorrhagic assay; type: in vivo; conditions: Mus musculus, iv, 10 mg/kg intravenously to male balb/c mice 10 min before intratracheal HNE, hemoglobin in BALF 3 h after HNE, vs vehicle-treated controls, read-out: % Inhibition in Murine Lung Hemorrhage Model @ 10 mg/kg
Text: Neutrophil Elastase-Induced Lung Hemorrhagic Assay
This in vivo assay is based on estimating the amount of hemorrhage in the lung following intratracheal administration of human neutrophil elastase (HNE). Hemorrhage is quantified by measuring the concentration of hemoglobin in the bronchoalveolar lavage fluid (BALF).
DMSO or saline served as vehicle controls. Mice were anesthetized with halothane and the trachea exposed by a small incision in the neck. Ten minutes after compound administration, mice received 7.5 units/animal of HNE (Elastin Products Co.) dissolved in […] saline. Three hours after HNE instillation, the animals were euthanized with an overdose of urethane. […] Triton X-100 was added to the collected BALF at a final concentration of 0.2% (v/v) to ensure cell disruption.

Row | IC50 [2] | melting point | Compound | % Inhibition in the ALI model [1] | inhibition in vivo at 10 mg/kg [3]
1 | – | – | CCc1cc(OC)cc2nc(-c3cccnc3N3CCN(CCOC)CC3)oc(=O)c12 [Compound 134] | B (B=11-30) | –
2 | 16 to 60 nM | – | Cc1cccc2nc(-c3cccnc3Oc3ccc(Cl)cc3)oc(=O)c12 [Compound 21] | – | < 10%
3 | 16 to 60 nM | – | COCCN1CCN(c2ncccc2-c2nc3cccc(C)c3c(=O)o2)CC1 [Compound 44] | – | 11 to 30%
4 | 16 to 60 nM | – | Cc1cccc2nc(-c3cccnc3Oc3ccc(F)cc3)oc(=O)c12 [Compound 36] | – | > 30%
5 | 61 to 150 nM | – | Cc1cccc2nc(-c3cccnc3N3CCCC(N(C)C)C3)oc(=O)c12 (centres unmarked) [Compound 49] | – | < 10%
6 | – | 117 to 119 °C | CCc1cc(OC)cc2nc(-c3cccnc3N3CC[C@H](N(C)C)C3)oc(=O)c12 (as salt: trifluoroacetate) [Compound 132, 2-[2-((S)-3-Dimethylamino-pyrrolidin-1-yl)-pyridin-3-yl]-5-ethyl-7-methoxy-4H-benz[d][1,3]oxazin-4-one] | – | –
7 | < 15 nM | – | O=c1oc(-c2cccnc2Oc2ccccc2)nc2cccc(C(F)(F)F)c12 [Compound 39] | – | > 30%
8 | 16 to 60 nM | – | COCCOCCOCCOCCOc1ncccc1-c1nc2cccc(C)c2c(=O)o1 [Compound 52, 2-[2-(2-{2-[2-(2-Methoxy-ethoxy)-ethoxy]-ethoxy}-ethoxy)-pyridin-3-yl]-5-methyl-4H-benz[d][1,3]oxazin-4-one] | – | 11 to 30%
9 | 61 to 150 nM | – | Cc1cccc2nc(-c3cccnc3N(C)C3CCN(C)C3)oc(=O)c12 (centres unmarked) [Compound 53] | – | 11 to 30%
10 | – | 43 to 49 °C | CCc1cc(OC)cc2nc(-c3cccnc3N3CC[C@H](N(C)C)C3)oc(=O)c12 (as salt: methanesulfonate) (hydrate or solvate) [Compound 132, 2-[2-((S)-3-Dimethylamino-pyrrolidin-1-yl)-pyridin-3-yl]-5-ethyl-7-methoxy-4H-benz[d][1,3]oxazin-4-one] | – | –
11 | > 150 nM | – | Cc1cccc2nc(-c3cccnc3N3CCN(CC4CC4)CC3)oc(=O)c12 [Compound 54] | – | > 30%
12 | – | 150 to 159 °C | CCc1cc(OC)cc2nc(-c3cccnc3N3CC[C@H](N(C)C)C3)oc(=O)c12 (as salt: salt) (hydrate or solvate) [Compound 132, 2-[2-((S)-3-Dimethylamino-pyrrolidin-1-yl)-pyridin-3-yl]-5-ethyl-7-methoxy-4H-benz[d][1,3]oxazin-4-one] | – | –
13 | > 150 nM | – | Cc1cccc2nc(-c3ccccn3)oc(=O)c12 [Compound 4] | – | > 30%
14 | – | 148 to 155 °C and 144 to 145 °C | CCc1cc(OC)cc2nc(-c3cccnc3N3CC[C@H](N(C)C)C3)oc(=O)c12 (as salt: tartrate) (hydrate or solvate) [Compound 132, 2-[2-((S)-3-Dimethylamino-pyrrolidin-1-yl)-pyridin-3-yl]-5-ethyl-7-methoxy-4H-benz[d][1,3]oxazin-4-one] | – | –
15 | 61 to 150 nM | – | Cc1cccc2nc(-c3cccnc3N3CCC(N(C)C)C3)oc(=O)c12 (centres unmarked) [Compound 46, 2-[2-(3-Dimethylamino-pyrrolidin-1-yl)-pyridin-3-yl]-5-methyl-4H-benz[d][1,3]oxazin-4-one] | – | > 30%
16 | < 15 nM | – | CCc1cc(OC)cc2nc(-c3cccnc3N3CC[C@H](N(C)C)C3)oc(=O)c12 [Compound 132, 2-[2-((S)-3-Dimethylamino-pyrrolidin-1-yl)-pyridin-3-yl]-5-ethyl-7-methoxy-4H-benz[d][1,3]oxazin-4-one] | C (C>30) | –
17 | 61 to 150 nM | – | O=c1oc(-c2cccnc2Oc2ccc(F)cc2)nc2cccc(Cl)c12 [Compound 26] | – | 11 to 30%
18 | > 150 nM | – | Cc1cccc2nc(-c3cccnc3N3CCN(C)C(C)C3)oc(=O)c12 (centres unmarked) [Compound 50] | – | 11 to 30%
19 | 16 to 60 nM | – | Cc1cccnc1-c1nc2cccc(Cl)c2c(=O)o1 [Compound 18] | – | < 10%
20 | 61 to 150 nM | – | O=c1oc(-c2ccccn2)nc2cccc(Cl)c12 [Compound 12] | – | –
21 | < 15 nM | – | C=CCN1CCN(c2ncccc2-c2nc3cc(OC)cc(CC)c3c(=O)o2)CC1 [Compound 193] | – | –
